In patent US20240158370A1, “CK1 alpha AND DUAL CK1 alpha / GSPT1 DEGRADING COMPOUNDS” (Innovo Therapeutics, Inc., priority 2022, published 2024):

Experiments:
CK1α = target: T1, CK1α (Homo sapiens, UniProt P48729+Q96SW2); experiment: HiBiT degradation assay, CK1α, Procedure A; format: cell-based; details: six hours incubation
T1 construct: CSNK1A1-HiBit KI HEK293(LgBit) Cells; host or cells: HEK293(LgBit) knock-in cells
Procedure, shortened: (§1)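 DC50 and Ymin (% remaining) were derived by four-parameter fitting of luminescence data. The data come from a six-hour, 37° C compound exposure of cells in DMEM/10% FBS over a ten-point range, 10 μM to 0.005 μM, followed by Nano-Glo HiBiT lytic detection.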

GSPT1 = GSPT1 (Homo sapiens, UniProt P15170+Q96SW2); experiment: HiBiT degradation assay, GSPT1, Procedure A; format: cell-based; set-up: HiBit-GSPT1 KI HEK293(LgBit) Cells; host or cells: HEK293(LgBit) knock-in cells; details: six hours incubation
Chain of GSPT1 (P15170 whole entry): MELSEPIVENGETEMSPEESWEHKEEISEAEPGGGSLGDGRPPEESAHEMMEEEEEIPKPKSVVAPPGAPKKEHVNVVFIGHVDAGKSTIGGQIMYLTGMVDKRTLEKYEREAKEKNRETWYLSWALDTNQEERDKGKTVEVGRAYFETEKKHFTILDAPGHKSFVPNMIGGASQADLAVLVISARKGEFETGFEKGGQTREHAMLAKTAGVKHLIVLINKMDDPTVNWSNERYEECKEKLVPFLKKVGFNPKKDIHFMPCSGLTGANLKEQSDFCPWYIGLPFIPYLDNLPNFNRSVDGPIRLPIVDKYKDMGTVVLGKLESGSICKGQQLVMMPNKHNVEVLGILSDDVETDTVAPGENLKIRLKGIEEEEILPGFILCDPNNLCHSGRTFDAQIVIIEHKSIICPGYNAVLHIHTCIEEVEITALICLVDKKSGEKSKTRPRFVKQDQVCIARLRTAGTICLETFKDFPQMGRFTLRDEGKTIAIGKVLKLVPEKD
Chain of GSPT1 (Q96SW2 whole entry): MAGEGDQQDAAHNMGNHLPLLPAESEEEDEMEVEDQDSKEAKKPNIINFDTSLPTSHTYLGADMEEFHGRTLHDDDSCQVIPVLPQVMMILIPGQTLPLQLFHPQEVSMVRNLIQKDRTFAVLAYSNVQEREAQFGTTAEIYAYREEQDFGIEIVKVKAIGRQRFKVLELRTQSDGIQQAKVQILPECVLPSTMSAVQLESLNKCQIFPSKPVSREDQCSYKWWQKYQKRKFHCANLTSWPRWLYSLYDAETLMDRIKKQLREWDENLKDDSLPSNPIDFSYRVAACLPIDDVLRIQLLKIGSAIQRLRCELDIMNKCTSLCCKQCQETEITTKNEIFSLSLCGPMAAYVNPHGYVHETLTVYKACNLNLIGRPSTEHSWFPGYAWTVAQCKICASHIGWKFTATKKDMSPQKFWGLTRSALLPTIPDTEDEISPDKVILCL
Chain of GSPT1 (Q16531 whole entry partner): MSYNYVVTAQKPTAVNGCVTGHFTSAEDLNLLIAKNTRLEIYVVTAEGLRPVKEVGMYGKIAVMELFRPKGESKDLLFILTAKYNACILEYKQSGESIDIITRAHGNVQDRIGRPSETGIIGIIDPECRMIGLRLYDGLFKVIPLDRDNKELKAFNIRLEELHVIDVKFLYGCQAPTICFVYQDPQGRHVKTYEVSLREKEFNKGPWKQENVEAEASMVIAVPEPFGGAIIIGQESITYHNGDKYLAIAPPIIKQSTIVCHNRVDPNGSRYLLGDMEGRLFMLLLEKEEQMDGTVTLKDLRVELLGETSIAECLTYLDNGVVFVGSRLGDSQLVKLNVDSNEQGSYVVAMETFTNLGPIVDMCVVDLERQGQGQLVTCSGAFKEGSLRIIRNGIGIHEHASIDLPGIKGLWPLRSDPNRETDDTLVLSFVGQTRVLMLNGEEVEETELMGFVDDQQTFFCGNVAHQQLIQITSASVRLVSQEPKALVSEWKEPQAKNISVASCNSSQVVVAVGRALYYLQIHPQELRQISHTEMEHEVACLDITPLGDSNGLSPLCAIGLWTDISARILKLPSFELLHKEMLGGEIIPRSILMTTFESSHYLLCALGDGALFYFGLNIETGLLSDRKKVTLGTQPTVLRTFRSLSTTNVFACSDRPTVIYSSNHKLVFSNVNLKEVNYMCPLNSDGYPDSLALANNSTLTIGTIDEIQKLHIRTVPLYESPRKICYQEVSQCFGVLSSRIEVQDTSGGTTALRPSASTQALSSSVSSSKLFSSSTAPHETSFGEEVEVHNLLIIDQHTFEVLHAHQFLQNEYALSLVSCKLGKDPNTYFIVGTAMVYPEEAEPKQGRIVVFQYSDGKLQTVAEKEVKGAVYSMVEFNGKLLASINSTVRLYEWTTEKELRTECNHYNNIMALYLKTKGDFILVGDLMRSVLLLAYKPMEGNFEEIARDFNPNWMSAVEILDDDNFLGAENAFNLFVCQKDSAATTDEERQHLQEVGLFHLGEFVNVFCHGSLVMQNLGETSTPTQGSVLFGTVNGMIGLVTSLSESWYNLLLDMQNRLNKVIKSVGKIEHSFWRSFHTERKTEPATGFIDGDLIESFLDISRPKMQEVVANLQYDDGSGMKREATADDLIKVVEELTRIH
Procedure, shortened: as §1

T1 sequence (P48729 whole entry): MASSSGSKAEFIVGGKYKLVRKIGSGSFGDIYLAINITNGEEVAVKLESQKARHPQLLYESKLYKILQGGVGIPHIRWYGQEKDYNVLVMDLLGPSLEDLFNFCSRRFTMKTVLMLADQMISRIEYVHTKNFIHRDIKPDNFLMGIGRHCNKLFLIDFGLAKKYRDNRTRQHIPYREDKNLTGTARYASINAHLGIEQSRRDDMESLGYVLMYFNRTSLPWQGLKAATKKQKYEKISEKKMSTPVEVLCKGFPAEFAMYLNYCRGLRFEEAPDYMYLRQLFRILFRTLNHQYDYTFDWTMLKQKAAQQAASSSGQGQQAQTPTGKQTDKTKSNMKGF
T1 sequence (Q96SW2 whole entry): as the sequence (Q96SW2 whole entry) above
T1 sequence (Q16531 whole entry partner): as the sequence (Q16531 whole entry partner) above

Row | CK1α Ymin (CK1α) | DC50 (CK1α) [nM] | DC50 (GSPT1) [nM] | GSPT1 Ymin (GSPT1) | Structure (SMILES)
1 | D (D = >10- 25% remaining) | < 25 | ≥ 25 | F (F = >75-100% remaining) | Cn1cnc(-c2ccc3c(c2)CN(C2CCC(=O)NC2=O)C3=O)c1-c1ccc(Cl)c(C#N)c1 (stereo not shown) [Example 270]
2 | E (E = >25-75% remaining) | ≥ 25 | < 25 | F (F = >75-100% remaining) | Cn1cnc(-c2ccc3c(c2)CN(C2CCC(=O)NC2=O)C3=O)c1-c1cc(Cl)cc(C#N)c1 (stereo not shown) [Example 271]
3 | E (E = >25-75% remaining) | < 25 | < 25 | F (F = >75-100% remaining) | Cn1cnc(-c2ccc3c(c2)CN(C2CCC(=O)NC2=O)C3=O)c1-c1cc(Cl)ccc1C#N (stereo not shown) [Example 272]
4 | C (C = 0-10% remaining) | < 25 | < 25 | E (E = >25-75% remaining) | COc1ccc(-c2c(-c3ccc4c(c3)CN(C3CCC(=O)NC3=O)C4=O)ncn2C)c(Cl)c1 (stereo not shown) [Example 273]
5 | E (E = >25-75% remaining) | < 25 | ≥ 25 | F (F = >75-100% remaining) | COc1ccc(Cl)cc1-c1c(-c2ccc3c(c2)CN(C2CCC(=O)NC2=O)C3=O)ncn1C (stereo not shown) [Example 274]
6 | D (D = >10- 25% remaining) | < 25 | ≥ 25 | F (F = >75-100% remaining) | COc1ccc(Cl)c(-c2c(-c3ccc4c(c3)CN(C3CCC(=O)NC3=O)C4=O)ncn2C)c1 (stereo not shown) [Example 275]
7 | C (C = 0-10% remaining) | < 25 | < 25 | F (F = >75-100% remaining) | COc1ccc(-c2c(-c3ccc4c(c3)CN(C3CCC(=O)NC3=O)C4=O)ncn2C)cc1Cl (stereo not shown) [Example 276]
8 | E (E = >25-75% remaining) | < 25 | < 25 | F (F = >75-100% remaining) | COc1cccc(-c2c(-c3ccc4c(c3)CN(C3CCC(=O)NC3=O)C4=O)ncn2C)c1Cl (stereo not shown) [Example 277]
9 | E (E = >25-75% remaining) | < 25 | ≥ 25 | F (F = >75-100% remaining) | COc1c(Cl)cccc1-c1c(-c2ccc3c(c2)CN(C2CCC(=O)NC2=O)C3=O)ncn1C (stereo not shown) [Example 278]
10 | D (D = >10- 25% remaining) | < 25 | ≥ 25 | F (F = >75-100% remaining) | Cn1cnc(-c2ccc3c(c2)CN(C2CCC(=O)NC2=O)C3=O)c1-c1ccc(C2(C#N)CC2)cc1 (stereo not shown) [Example 279]
11 | E (E = >25-75% remaining) | < 25 | ≥ 25 | F (F = >75-100% remaining) | Cn1cnc(-c2ccc3c(c2)CN(C2CCC(=O)NC2=O)C3=O)c1-c1cccc(C(F)(F)F)c1 (stereo not shown) [Example 280]
12 | E (E = >25-75% remaining) | < 25 | ≥ 25 | F (F = >75-100% remaining) | Cn1cnc(-c2ccc3c(c2)CN(C2CCC(=O)NC2=O)C3=O)c1-c1ccccc1C(F)(F)F (stereo not shown) [Example 282]
13 | E (E = >25-75% remaining) | < 25 | ≥ 25 | F (F = >75-100% remaining) | Cn1cnc(-c2ccc3c(c2)CN(C2CCC(=O)NC2=O)C3=O)c1-c1ccc(Cl)c(Cl)c1 (stereo not shown) [Example 283]
14 | E (E = >25-75% remaining) | < 25 | ≥ 25 | F (F = >75-100% remaining) | Cn1cnc(-c2ccc3c(c2)CN(C2CCC(=O)NC2=O)C3=O)c1-c1cccc(Cl)c1Cl (stereo not shown) [Example 284]
15 | E (E = >25-75% remaining) | < 25 | < 25 | F (F = >75-100% remaining) | Cn1cnc(-c2ccc3c(c2)CN(C2CCC(=O)NC2=O)C3=O)c1-c1cc(Cl)ccc1Cl (stereo not shown) [Example 285]
16 | D (D = >10- 25% remaining) | < 25 | < 25 | E (E = >25-75% remaining) | Cn1cnc(-c2ccc3c(c2)CN(C2CCC(=O)NC2=O)C3=O)c1-c1ccc(Cl)cc1Cl (stereo not shown) [Example 286]
17 | C (C = 0-10% remaining) | < 25 | < 25 | E (E = >25-75% remaining) | Cn1cnc(-c2ccc3c(c2)CN(C2CCC(=O)NC2=O)C3=O)c1-c1ccc(N2CCCC2)cc1 (stereo not shown) [Example 288]
18 | C (C = 0-10% remaining) | ≥ 25 | ≥ 25 | F (F = >75-100% remaining) | CN(C)C(=O)c1ccc(-c2c(-c3ccc4c(c3)CN(C3CCC(=O)NC3=O)C4=O)ncn2C)cc1 (stereo not shown) [Example 289]
19 | D (D = >10- 25% remaining) | ≥ 25 | ≥ 25 | F (F = >75-100% remaining) | CN(C)C(=O)c1cccc(-c2c(-c3ccc4c(c3)CN(C3CCC(=O)NC3=O)C4=O)ncn2C)c1 (stereo not shown) [Example 290]

Row | CK1α Ymin (CK1α) | DC50 (CK1α) [nM] | DC50 (GSPT1) [nM] | GSPT1 Ymin (GSPT1) | Structure (SMILES)
20 | E (E = >25-75% remaining) | < 25 | ≥ 25 | F (F = >75-100% remaining) | Cn1cnc(-c2ccc3c(c2)CN(C2CCC(=O)NC2=O)C3=O)c1-c1cccc(-c2ccccc2)c1 (stereo not shown) [Example 291]
21 | E (E = >25-75% remaining) | ≥ 25 | < 25 | F (F = >75-100% remaining) | Cn1cnc(-c2ccc3c(c2)CN(C2CCC(=O)NC2=O)C3=O)c1-c1ccc(F)c(C(F)(F)F)c1 (stereo not shown) [Example 293]
22 | D (D = >10- 25% remaining) | < 25 | < 25 | E (E = >25-75% remaining) | Cn1cnc(-c2ccc3c(c2)CN(C2CCC(=O)NC2=O)C3=O)c1-c1ccc(-c2ccccc2)cc1 (stereo not shown) [Example 294]
23 | D (D = >10- 25% remaining) | ≥ 25 | ≥ 25 | F (F = >75-100% remaining) | Cn1cnc(-c2ccc3c(c2)CN(C2CCC(=O)NC2=O)C3=O)c1-c1cccc(CN2CCCC2)c1 (stereo not shown) [Example 295]
24 | E (E = >25-75% remaining) | < 25 | ≥ 25 | F (F = >75-100% remaining) | Cn1cnc(-c2ccc3c(c2)CN(C2CCC(=O)NC2=O)C3=O)c1-c1cccc(N2CCCCC2)c1 (stereo not shown) [Example 296]
25 | E (E = >25-75% remaining) | < 25 | ≥ 25 | F (F = >75-100% remaining) | Cn1cnc(-c2ccc3c(c2)CN(C2CCC(=O)NC2=O)C3=O)c1-c1cccc(N2CCOCC2)c1 (stereo not shown) [Example 297]
26 | E (E = >25-75% remaining) | < 25 | ≥ 25 | F (F = >75-100% remaining) | Cn1cnc(-c2ccc3c(c2)CN(C2CCC(=O)NC2=O)C3=O)c1-c1ccc(-c2ccc(O)cc2)cc1 (stereo not shown) [Example 298]
27 | C (C = 0-10% remaining) | < 25 | ≥ 25 | F (F = >75-100% remaining) | Cn1cnc(-c2ccc3c(c2)CN(C2CCC(=O)NC2=O)C3=O)c1-c1ccc(-c2ccc(C#N)cc2)cc1 (stereo not shown) [Example 299]
28 | D (D = >10- 25% remaining) | ≥ 25 | ≥ 25 | F (F = >75-100% remaining) | Cn1cnc(-c2ccc3c(c2)CN(C2CCC(=O)NC2=O)C3=O)c1-c1ccc(C(=O)NC2CCCC2)cc1 (stereo not shown) [Example 300]
29 | D (D = >10- 25% remaining) | < 25 | ≥ 25 | F (F = >75-100% remaining) | Cn1cnc(-c2ccc3c(c2)CN(C2CCC(=O)NC2=O)C3=O)c1-c1cccc2c1CCC2 (stereo not shown) [Example 301]
30 | E (E = >25-75% remaining) | ≥ 25 | ≥ 25 | F (F = >75-100% remaining) | Cn1cnc(-c2ccc3c(c2)CN(C2CCC(=O)NC2=O)C3=O)c1-c1cccc(C(=O)NC2CCCCC2)c1 (stereo not shown) [Example 302]
31 | E (E = >25-75% remaining) | < 25 | ≥ 25 | F (F = >75-100% remaining) | COc1cccc(COc2cccc(-c3c(-c4ccc5c(c4)CN(C4CCC(=O)NC4=O)C5=O)ncn3C)c2)c1 (stereo not shown) [Example 303]
32 | D (D = >10- 25% remaining) | < 25 | < 25 | F (F = >75-100% remaining) | Cn1cnc(-c2ccc3c(c2)CN(C2CCC(=O)NC2=O)C3=O)c1-c1ccc(OCc2ccccc2)c(Cl)c1 (stereo not shown) [Example 304]
33 | C (C = 0-10% remaining) | < 25 | < 25 | F (F = >75-100% remaining) | Cn1cnc(-c2ccc3c(c2)CN(C2CCC(=O)NC2=O)C3=O)c1-c1ccc(-c2ccncc2)cc1 (stereo not shown) [Example 305]
34 | E (E = >25-75% remaining) | ≥ 25 | ≥ 25 | E (E = >25-75% remaining) | Cn1cnc(-c2ccc3c(c2)CN(C2CCC(=O)NC2=O)C3=O)c1-c1ccc(S(C)(=O)=O)cc1 (stereo not shown) [Example 306]
35 | D (D = >10- 25% remaining) | ≥ 25 | < 25 | F (F = >75-100% remaining) | Cn1cnc(-c2ccc3c(c2)CN(C2CCC(=O)NC2=O)C3=O)c1-c1ccc(C(=O)NCc2ccccc2)c(Cl)c1 (stereo not shown) [Example 307]
36 | D (D = >10- 25% remaining) | < 25 | ≥ 25 | F (F = >75-100% remaining) | Cn1cnc(-c2ccc3c(c2)CN(C2CCC(=O)NC2=O)C3=O)c1-c1ccc(Oc2cccnc2)cc1 (stereo not shown) [Example 308]
37 | D (D = >10- 25% remaining) | < 25 | < 25 | F (F = >75-100% remaining) | Cn1cnc(-c2ccc3c(c2)CN(C2CCC(=O)NC2=O)C3=O)c1-c1ccc(CN2CCOCC2)cc1 (stereo not shown) [Example 309]
